For orientation: IC50 means the concentration needed to halve the response being measured.

The subject of one data set is A/Udorn/72 virus. The experiment in a line: microbe, parasite or virus in culture. Type of data set: cell-based, influenza A virus. Particulars: for activity at 0.25 µM: MDCK, read-out: Virus yield (progeny virus, % of control).
Data set [1] has as its system viral and bacterial neuraminidases. Type of data set: biochemical, influenza viruses, bacteria, human saliva. To be noted: read-out: IC50, viral, bacterial and saliva neuraminidases.
The next data set deals with B/Johannesburg/99 virus. The data set is described as follows: Virus growth inhibition assay in MDCK cells (progeny virus by plaque assay). Format: cell-based, influenza B virus. Particulars: for activity at 0.25 µM: read-out: Virus yield (progeny virus, % of control). As to the method:
The infectivity of viruses was determined by plaque assay as described below. Ten-fold serial dilutions of virus samples were made in Hanks balanced salt solution (HBSS; GIBCO, Gland Island, NY, USA) and 0.1 ml of the dilutions was inoculated on MDCK cell monolayers in 6-well tissue culture plates (Corning, Lowell, MA, USA). After adsorption of the virus onto the cells for 30 min at room temperature, 1.6 ml of Leibovitz’s L15 medium (GIBCO, Gland Island, NY, USA) containing 0.6% SeaKem ME agarose (Lonza, Basel, Switzerland), 1.5% gelatin (Nacalai, Kyoto, Japan) and 2.5 µg/ml TPCK-trypsin was added to each well and allowed to solidify. The plates were incubated for 3 days at 34°C and the number of plaques was counted. Infectivity was expressed as plaque forming units (pfu) per ml.
The inhibition of virus growth by neuraminidase inhibitors in the presence or absence of bacterial neuraminidase was assayed by measuring the released progeny virus in the culture fluid of infected cells. MDCK cells seeded on 12-well tissue culture plates were inoculated with 50 µl of virus suspension at a MOI of 0.001 or 0.01. After the adsorption for 1 h on ice, 1 ml MEM supplemented with 2.5 µg/ml TPCK-trypsin containing neuraminidase inhibitor and/or bacterial neuraminidase was added to each well. At the indicated times of incubation at 37°C in 5% CO2, culture media were harvested and the virus titers, performed in triplicate wells, were determined by plaque assay.

On the set-up of data set [2]: method as in PMID 10858364. Particulars: 6 h after oral inhalation of 10 mg of zanamivir powder; cited from earlier work.
A short description of data set [3]: Concentration of zanamivir in sputum after oral inhalation (clinical setting). Format: in vivo. To be noted: minutes after oral inhalation of 10 mg of zanamivir powder.
For data set [4], the system named is bacterial and salivary neuraminidases (S. pneumoniae, saliva, A. ureafaciens, V. cholerae RDE). Type of data set: biochemical, human saliva.
In data set [5] the test system is neuraminidase of influenza viruses (A/Udorn/72(H3N2), A/Chiba/2009(H1N1)pdm and B/Johannesburg/99). Type of data set: biochemical, influenza virus.

“And” between values parts separate entries of the source, which are not always exact repeats. Identical values can stand only once. Like-named read-outs stand apart in the source and are kept apart here.

Regarding `CC(=O)N[C@H]1[C@H]([C@H](O)[C@H](O)CO)OC(C(=O)O)=C[C@@H]1O` [DANA, 2-Deoxy-2,3-dehydro-N-acetylneuraminic acid], the “Effect on influenza virus production” value in the data set on A/Udorn/72 virus was “inhibited influenza virus production”; in the data set on B/Johannesburg/99 virus (2.5 mM DANA, MDCK cells, MOI 0.001, 40 hpi), “inhibited influenza virus production”. Further, the “Restoration of virus production by S. pneumoniae culture supernatant” value in the data set on A/Udorn/72 virus and in the data set on B/Johannesburg/99 virus (2.5 mM DANA + S. pneumoniae culture supernatant) was “not restored” throughout. Further, the IC50 in data set [1] is 2 to 20 µM.

As for `CC(=O)N[C@H]1[C@H]([C@H](O)[C@H](O)CO)OC(C(=O)O)=C[C@@H]1N=C(N)N` [zanamivir, Zanamivir], the “Concentration of zanamivir in sputum” value in data set [2] was ≤ 1,441 ng/ml and ≤ 4.3 µM. The “Concentration of zanamivir in sputum, calculated” value in data set [3] was ≤ 5,870 ng/ml and ≤ 17.5 µM. Moreover, in data set [4] (Figure 2A), the “Concentrations at which bacterial neuraminidases were inhibited” value is “above 10 µM”. The IC50 in data set [4] (range over S. pneumoniae, saliva, A. ureafaciens, V. cholerae RDE) was in the range of 100 to 5000 µM. Also, the activity at 0.25 µM in the data set on A/Udorn/72 virus (Influenza A virus) is 2%; in the data set on A/Udorn/72 virus (Streptococcus pneumoniae) it was 84%; with B/Johannesburg/99 virus (250 nM zanamivir + Streptococcus pneumoniae culture supernatant (6 µunits/ml neuraminidase activity), MDCK cells, MOI 0.001, 40 hpi), 92%; in the data set on B/Johannesburg/99 virus (Influenza B virus, 250 nM zanamivir, MDCK cells, MOI 0.001, 40 hpi), 0.4%. The “Potency against influenza virus NA relative to bacterial neuraminidases” value in data set [5] is “approximately a million”.

Source of the values: PMC3445474 (PLoS ONE, 2012).
